Values after ≈ are worked out from the molar mass of the structure shown. Active and inactive are the calls of the source. The calls are words filed in the database; no cut-off is given here.
Key:
[1] = Inhibition of chymotrypsin-like activity of 20S proteasome in human MOLT4 cells after 1 hr by […]; format: cell-based; settings: MOLT-4, 1 h
Mus musculus [2] = experiment: Inhibition of chymotrypsin-like activity of 20S proteasome in BALB/c mouse adrenal gland at 10 mg/kg, po after 1 hr; format: functional; design: scale not given: the % may be the effect or the level left
[3] = Cytotoxicity against multidrug resistance transporter expressing doxorubicin resistant human MESSA cells assessed as cell viability after 72 hrs by CellTiter-Glo luminescent assay; format: functional, cell-based; settings: MES-SA
[4] = Inhibition of chymotrypsin-like activity of human 20S proteasome by spectrofluorimetry
[5] = Chemical stability in simulated intestinal fluid assessed as compound remaining at 4 uM after 15 mins; format: physicochemical; settings: read-out: Stability
[6] = Cytotoxicity against human MESSA cells assessed as cell viability after 72 hrs by CellTiter-Glo luminescent assay; format: functional, cell-based; settings: MES-SA
[7] = Solubility in ethanol-PS80 citrate buffer at pH 3.5 by HPLC analysis; format: physicochemical
[8] = Metabolic stability in mouse liver microsomes assessed as extraction ratio at 1 uM; format: ADME, Microsome
[9] = Metabolic stability in human liver microsomes assessed as extraction ratio at 1 uM; format: ADME, Microsome
Mus musculus [10] = experiment: Inhibition of chymotrypsin-like activity of 20S proteasome in BALB/c mouse adrenal gland at 20 mg/kg, po after 1 hr; format: functional; design: scale not given: the % may be the effect or the level left
Homo sapiens [11] = organism: Homo sapiens; experiment: Ratio of Kinact to Ki for chymotrypsin-like activity of human 26S proteasome by spectrophotometry; design: unit not given here
Mus musculus [12] = experiment: Inhibition of chymotrypsin-like activity of 20S proteasome in BALB/c mouse adrenal gland 40 mg/kg, po after 1 hr; format: functional; design: scale not given: the % may be the effect or the level left
[13] = molecular target: T1, Proteasome subunit beta type-8 (Homo sapiens, UniProt P28062)
T1 sequence (P28062 whole entry): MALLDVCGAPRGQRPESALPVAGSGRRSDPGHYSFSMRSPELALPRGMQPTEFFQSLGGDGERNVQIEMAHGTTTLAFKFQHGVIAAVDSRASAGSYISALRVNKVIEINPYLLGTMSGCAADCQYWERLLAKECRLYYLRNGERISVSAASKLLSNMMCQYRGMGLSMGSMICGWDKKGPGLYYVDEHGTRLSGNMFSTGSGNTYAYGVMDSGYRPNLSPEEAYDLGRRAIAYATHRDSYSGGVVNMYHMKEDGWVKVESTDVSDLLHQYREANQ
Description: Inhibition of chymotrypsin-like activity of LMP7 immunoproteasome by proteasome active site ELISA

[14] = Inhibition of chymotrypsin-like activity of human 20S proteasome beta 5 subunit by proteasome active site ELISA
CT26 [15] = experiment: Antitumor activity against mouse CT26 cells xenografted in BALB/c mouse assessed as time to achieve significant decrease in tumor volume at 20 mg/kg, po administered 3 days post tumor challenge in weekly qdx2 schedule; format: functional, organism-based; design: dose 20 mg/kg
[16] = Toxicity in po dosed BNX mouse xenografted with human RL cells assessed as maximum tolerated dose; format: organism-based; settings: in vivo
[17] = Toxicity in po dosed BALB/c mouse xenografted with mouse CT26 cells assessed as maximum tolerated dose; format: organism-based; settings: in vivo
RL [18] = experiment: Antitumor activity against human RL cells xenografted in BNX mouse assessed as time to achieve significant decrease in tumor volume at 20 mg/kg, po administered as weekly qdx2 schedule; format: functional, organism-based; design: dose 20 mg/kg
[19] = Toxicity in iv dosed BALB/c mouse xenografted with mouse CT26 cells assessed as maximum tolerated dose; format: organism-based; settings: in vivo
Homo sapiens [20] = organism: Homo sapiens; experiment: Selectivity for chymotrypsin-like activity over caspase-like activity of human 20S proteasome
Mus musculus [21] = experiment: Inhibition of chymotrypsin-like activity of 20S proteasome in BALB/c mouse blood at 40 mg/kg, po after 1 hr; format: functional; design: scale not given: the % may be the effect or the level left
RL [22] = experiment: Antitumor activity against human RL cells xenografted BNX mouse assessed as time to achieve significant decrease in tumor volume at 5 mg/kg, iv administered as weekly qdx2 schedule; format: functional
Homo sapiens [23] = organism: Homo sapiens; experiment: Selectivity for chymotrypsin-like activity over trypsin-like activity of human 20S proteasome
CT26 [24] = experiment: Antitumor activity against mouse CT26 cells xenografted in BALB/c mouse assessed as time to achieve significant decrease in tumor volume at 5 mg/kg, iv administered on day 3 post tumor challenge for weekly qdx2 schedule; format: functional
Mus musculus [25] = experiment: Inhibition of chymotrypsin-like activity of 20S proteasome in BALB/c mouse liver at 40 mg/kg, po after 1 hr; format: functional; design: scale not given: the % may be the effect or the level left
[26] = Chemical stability in simulated gastric fluid assessed as compound remaining at 4 uM after 15 mins; format: physicochemical; settings: read-out: Stability

Row | Compound | IC50 [1] [nM] | Activity (Mus musculus [2]) [%] | IC50 [3] [nM] | IC50 [4] [nM] | remaining at 0.25 h, 4 µM [5] [%] | IC50 [6] [nM] | solubility [7] [µg/mL] | hepatic extraction ratio at 1 µM [8] [dimensionless ratio] | hepatic extraction ratio at 1 µM [9] [dimensionless ratio] | Activity (Mus musculus [12]) [%] | IC50 [13] [nM] | IC50 [14] [nM] | also measured
1 | Cc1cc(C(=O)N[C@@H](Cc2cscn2)C(=O)N[C@@H](Cc2ccccc2)C(=O)N[C@@H](CC(C)C)C(=O)[C@@]2(C)CO2)no1 | 56 | 63 | 77 | 6.7 | 20 | 15 |  |  |  |  |  |  | 
2 | COC[C@H](NC(=O)c1cc(C)on1)C(=O)N[C@@H](C)C(=O)N[C@@H](CC(C)C)C(=O)[C@@]1(C)CO1 | 57 |  | 276 | 19 | 100 | 28 | 1240 (≈ 2740 µM) | 0.48 | 0.28 |  |  |  | Activity (Mus musculus [10]): 8%
3 | COC[C@H](NC(=O)c1cc(C)on1)C(=O)N[C@@H](Cc1ccccc1)C(=O)N[C@@H](CC(C)C)C(=O)[C@@]1(C)CO1 | 36 |  | 75 | 9.3 | 90 | 40 | 750 (≈ 1420 µM) | 0.96 | 0.91 | 9 |  |  | Ratio (Homo sapiens [11]): 58600; Activity (Mus musculus [10]): 33%
4 | CC(C)C[C@H](NC(=O)c1cc(CN2CCN(C)CC2)on1)C(=O)N[C@@H](Cc1ccccc1)C(=O)N[C@@H](CC(C)C)C(=O)[C@@]1(C)CO1 | 124 |  | > 1000 | 94 | 40 | 189 | ≥ 1000 |  |  | 101 |  |  | 
5 | Cc1cc(C(=O)N[C@@H](CC(C)C)C(=O)N[C@@H](Cc2ccccc2)C(=O)N[C@@H](CC(C)C)C(=O)[C@@]2(C)CO2)no1 | 17 |  | 47 | 1.8 | 60 | 28 | 60 (≈ 111 µM) |  |  |  |  |  | Ratio (Homo sapiens [11]): 50900
6 | CCOc1cc(C(=O)N[C@@H](COC)C(=O)N[C@@H](COC)C(=O)N[C@@H](CC(C)C)C(=O)[C@@]2(C)CO2)no1 | 35 | 4 | 66 | 3.1 | 70 | 5.4 |  | 0.69 | 0.69 |  | 41 | 9.3 | 
7 | COC[C@H](NC(=O)c1cc(C)on1)C(=O)N[C@@H](COC)C(=O)N[C@@H](Cc1ccccc1)C(=O)[C@@]1(C)CO1 | 35 | 43 | 155 | 24 | 90 | 17 |  | 0.59 | 0.59 |  | 21 | 11 | 
8 | COC[C@H](NC(=O)c1cc(C)on1)C(=O)N[C@@H](COC)C(=O)N[C@@H](CC(C)C)C(=O)[C@@]1(C)CO1 | 48 | 21 | 145 | 11 | 70 | 22 | 5880 (≈ 12200 µM) | 0.67 | 0.54 |  | 238 | 17 | Ratio (Homo sapiens [11]): 31800; Activity (Mus musculus [10]): 9%
9 | CCOc1cc(C(=O)N[C@@H](COC)C(=O)N[C@@H](COC)C(=O)N[C@@H](Cc2ccccc2)C(=O)[C@@]2(C)CO2)no1 | 3 | 3 | 54 | 1.4 | 85 | 4.3 |  | 0.77 | 0.77 |  | 5 | 3.7 | Activity (CT26 [15]): inactive; MTD [16]: 20 mg/kg; MTD [17]: 20 mg/kg; Activity (RL [18]): inactive
10 | COC[C@H](NC(=O)c1cc(OC)no1)C(=O)N[C@@H](COC)C(=O)N[C@@H](CC(C)C)C(=O)[C@@]1(C)CO1 | 32 | 21 | 82 | 11 | 35 | 12 |  | 0.37 | 0.4 |  | 22 | 23 | 
11 | COC[C@H](NC(=O)c1ccon1)C(=O)N[C@@H](COC)C(=O)N[C@@H](Cc1ccccc1)C(=O)[C@@]1(C)CO1 | 47 | 34 | 756 | 73 | 85 | 43 |  | 0.49 | 0.42 |  | 93 | 44 | 
12 | CC(C)C[C@H](NC(=O)[C@H](CCc1ccccc1)NC(=O)CN1CCOCC1)C(=O)N[C@@H](Cc1ccccc1)C(=O)N[C@@H](CC(C)C)C(=O)[C@@]1(C)CO1 [CARFILZOMIB] | 5.1 |  | 413 | 5.7 | < 5 | 18 |  |  |  | 83 |  | 5.2 | MTD [19]: 5 mg/kg; fold change (FC) (Homo sapiens [20]): > 100; Activity (Mus musculus [21]): 77%; Activity (RL [22]): 35 days; fold change (FC) (Homo sapiens [23]): > 100; Activity (CT26 [24]): 26 days; Activity (Mus musculus [25]): 109%; remaining at 0.25 h, 4 µM [26]: 15%
13 | COC[C@H](NC(=O)c1ccon1)C(=O)N[C@@H](COC)C(=O)N[C@@H](CC(C)C)C(=O)[C@@]1(C)CO1 | 168 | 14 | 260 | 43 | 90 | 37 |  | 0.39 | 0.16 |  | 607 | 48 | 
14 | CC(C)C[C@H](NC(=O)c1cc(Cn2ccnc2)on1)C(=O)N[C@@H](Cc1ccccc1)C(=O)N[C@@H](CC(C)C)C(=O)[C@@]1(C)CO1 | 59 |  | > 1000 | 15 |  | 52 | ≥ 1000 |  |  | 110 |  |  | 
15 | CC(C)C[C@H](NC(=O)c1cc(CN2CCOCC2)on1)C(=O)N[C@@H](Cc1ccccc1)C(=O)N[C@@H](CC(C)C)C(=O)[C@@]1(C)CO1 | 11 |  | 70 | 4.1 | 60 | 22 | 1480 (≈ 2370 µM) |  |  | 29 |  |  | Ratio (Homo sapiens [11]): 28300
16 | CC(C)C[C@H](NC(=O)c1cc(Cn2cncn2)on1)C(=O)N[C@@H](Cc1ccccc1)C(=O)N[C@@H](CC(C)C)C(=O)[C@@]1(C)CO1 | 62 |  | > 1000 | 13 |  | 35 | ≥ 1000 |  |  | 105 |  |  | 
17 | COC[C@H](NC(=O)c1cc(OC)no1)C(=O)N[C@@H](COC)C(=O)N[C@@H](Cc1ccccc1)C(=O)[C@@]1(C)CO1 | 10 | 19 | 269 | 50 | 100 | 12 |  | 0.54 | 0.64 |  | 36 | 14 | 
18 | CC(C)C[C@H](NC(=O)CN1CCOCC1)C(=O)N[C@@H](Cc1ccccc1)C(=O)N[C@@H](CC(C)C)C(=O)[C@@]1(C)CO1 | 45 |  | 308 | 57 | 45 | 35 |  |  |  | 82 |  |  | Ratio (Homo sapiens [11]): 7900; hepatic extraction ratio at 1 µM ([8]; read-out: ERH): 0.95; Activity (Mus musculus [21]): 37%; Activity (Mus musculus [25]): 22%; remaining at 0.25 h, 4 µM [26]: 90%

— ChEMBL document CHEMBL1138457, “Design and synthesis of an orally bioavailable and selective peptide epoxyketone proteasome inhibitor (PR-047)” (J Med Chem, 2009)
